Assay results from ChEMBL document CHEMBL1201862, “PubChem BioAssay data set” (2004).
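Grown in 96-well plates, cells were treated for 48 hours with each compound at five concentrations. Insufficient inhibition: endpoint recorded as highest concentration tested. GI50: concentration for 50% inhibition of growth.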 The source made the active and inactive calls. No stated cut-off is given here; in the data, active = GI50 up to about 1.1 µM and inactive = higher.

Tests used:
Assay in all cases: NCI anticancer screen, dose series, 48 h
OVCAR-4 = system: OVCAR-4
HL-60 = system: HL-60
NCI-H23 = system: NCI-H23
RPMI-8226 = system: RPMI-8226
M14 = system: M14
A549 = system: A549
UACC-257 = system: UACC-257
SK-MEL-28 = system: SK-MEL-28
COLO 205 = system: COLO 205
PC-3 = system: PC-3
EKVX = system: EKVX
HCC 2998 = system: HCC 2998
HOP-62 = system: HOP-62
UO-31 = system: UO-31
A498 = system: A498
SW-620 = system: SW-620
RXF 393 = system: RXF 393
NCI-H522 = system: NCI-H522
HOP-92 = system: HOP-92

Measured: GI50

O=C(c1ccc2ccccc2c1)C1S(=O)(=O)OCCOS1(=O)=O
inactive: OVCAR-4 > 100 µM | HL-60 > 100 µM | NCI-H23 > 100 µM | RPMI-8226 > 100 µM | M14 > 100 µM | A549 > 100 µM | UACC-257 > 100 µM | SK-MEL-28 > 100 µM | COLO 205 > 100 µM | PC-3 > 100 µM | EKVX > 100 µM | HCC 2998 > 100 µM | HOP-62 > 100 µM | UO-31 > 100 µM

CC12CCC(/C(=N/c3ccc([N+](=O)[O-])cc3)C1=O)C2(C)C (stereo not given)
inactive: OVCAR-4 13.1 µM | A498 > 100 µM | NCI-H23 31.6 µM | RPMI-8226 20.1 µM | M14 27.9 µM | A549 36.1 µM | UACC-257 32.4 µM | SW-620 23.3 µM | RXF 393 13.9 µM | SK-MEL-28 12 µM | COLO 205 19.4 µM | PC-3 24.5 µM | EKVX 20.1 µM | HCC 2998 17.4 µM | HOP-62 25.2 µM | UO-31 17.8 µM

C[N+](C)(C)CC1CCCC/C1=N\O (stereo not given)
inactive: OVCAR-4 > 100 µM | NCI-H522 > 100 µM | A498 > 100 µM | HL-60 > 100 µM | NCI-H23 > 100 µM | RPMI-8226 > 100 µM | M14 > 100 µM | HOP-92 > 100 µM | A549 > 100 µM | UACC-257 > 100 µM | SW-620 > 100 µM | RXF 393 > 100 µM | SK-MEL-28 > 100 µM | COLO 205 > 100 µM | EKVX > 100 µM | HCC 2998 > 100 µM | HOP-62 > 100 µM | UO-31 > 100 µM

C#CCOC(=O)C=[N+]=[N-]
inactive: A498 6.92 µM | HL-60 > 10 µM | NCI-H23 > 10 µM | RPMI-8226 > 10 µM | M14 > 10 µM | HOP-92 > 10 µM | A549 > 10 µM | UACC-257 > 10 µM | SW-620 > 10 µM | RXF 393 > 10 µM | SK-MEL-28 > 10 µM | PC-3 > 10 µM | EKVX > 10 µM | HOP-62 > 10 µM | UO-31 > 10 µM

Nc1ccc2c(c1)C(=O)N(OS(=O)(=O)c1ccccc1)C2=O
inactive: OVCAR-4 > 100 µM | NCI-H522 21.5 µM | A498 > 100 µM | HL-60 46.5 µM | NCI-H23 > 100 µM | M14 > 100 µM | HOP-92 > 100 µM | A549 > 100 µM | UACC-257 > 100 µM | SW-620 49.8 µM | RXF 393 > 100 µM | SK-MEL-28 > 100 µM | COLO 205 56.4 µM | EKVX > 100 µM | HCC 2998 > 100 µM | HOP-62 > 100 µM | UO-31 > 100 µM

N#CNc1nc(C(=O)Nc2ccc(Cl)cc2)cc(-c2ccccc2)n1
inactive: OVCAR-4 > 100 µM | A498 > 100 µM | HL-60 > 100 µM | NCI-H23 > 100 µM | RPMI-8226 > 100 µM | M14 > 100 µM | HOP-92 > 100 µM | A549 > 100 µM | UACC-257 > 100 µM | SW-620 > 100 µM | RXF 393 > 100 µM | SK-MEL-28 > 100 µM | EKVX > 100 µM | HCC 2998 > 100 µM | HOP-62 > 100 µM | UO-31 > 100 µM

O=C1CC2(CCNCC2)C(=O)N1N1CCCC1
inactive: NCI-H522 > 100 µM | HL-60 > 100 µM | NCI-H23 > 100 µM | RPMI-8226 > 100 µM | M14 > 100 µM | A549 > 100 µM | UACC-257 > 100 µM | SW-620 > 100 µM | RXF 393 > 100 µM | COLO 205 > 100 µM | PC-3 > 100 µM | EKVX > 100 µM | HCC 2998 > 100 µM | HOP-62 > 100 µM | UO-31 > 100 µM

CC1CC(=O)C(CC(=O)O)[C@H]1C(C(=O)C(=O)Nc1cc(Cl)ccc1Cl)[N+](=O)[O-] (stereo not given in full)
inactive: NCI-H522 > 100 µM | A498 > 100 µM | HL-60 > 100 µM | RPMI-8226 > 100 µM | HOP-92 > 100 µM | A549 > 100 µM | SW-620 > 100 µM | RXF 393 > 100 µM | SK-MEL-28 > 100 µM | COLO 205 > 100 µM | EKVX > 100 µM | HCC 2998 > 100 µM | HOP-62 > 100 µM | UO-31 > 100 µM

O=C(/C=C/c1c(O)ccc2ccccc12)c1cccc(O)c1
inactive: OVCAR-4 > 70 µM | NCI-H522 63.4 µM | A498 > 100 µM | HL-60 20.7 µM | NCI-H23 > 79.8 µM | RPMI-8226 64.3 µM | M14 > 100 µM | HOP-92 > 62.8 µM | A549 > 100 µM | UACC-257 76.9 µM | SW-620 > 100 µM | RXF 393 > 77.4 µM | SK-MEL-28 > 100 µM | COLO 205 > 100 µM | EKVX > 100 µM | HCC 2998 > 100 µM | HOP-62 > 100 µM | UO-31 > 100 µM

O=C1OC(CS(=O)(=O)c2ccccc2)CC1O (stereo not given)
inactive: OVCAR-4 > 100 µM | NCI-H522 53.1 µM | A498 > 100 µM | NCI-H23 > 100 µM | RPMI-8226 > 100 µM | M14 > 100 µM | A549 > 100 µM | UACC-257 > 100 µM | SW-620 > 100 µM | RXF 393 > 100 µM | SK-MEL-28 > 100 µM | COLO 205 > 100 µM | PC-3 > 100 µM | EKVX > 100 µM | HCC 2998 > 100 µM | HOP-62 > 100 µM | UO-31 55.6 µM

Cc1ccc(NC(=O)CC/C(CC(=O)c2ccc(F)cc2)=N\NC(=O)C(=O)NN)cc1C
inactive: OVCAR-4 > 100 µM | NCI-H522 > 100 µM | A498 > 100 µM | HL-60 41.5 µM | NCI-H23 > 100 µM | M14 > 100 µM | HOP-92 > 100 µM | A549 > 100 µM | UACC-257 > 100 µM | SW-620 > 100 µM | RXF 393 > 100 µM | SK-MEL-28 > 100 µM | COLO 205 > 100 µM | EKVX > 100 µM | HCC 2998 > 100 µM | HOP-62 > 100 µM | UO-31 > 100 µM

Nc1ccc(O)c2c1C(=O)c1c(N)ccc(O)c1C2=O
inactive: OVCAR-4 > 100 µM | NCI-H522 > 100 µM | A498 > 100 µM | HL-60 > 100 µM | NCI-H23 > 100 µM | RPMI-8226 > 100 µM | M14 > 100 µM | HOP-92 > 100 µM | A549 > 100 µM | UACC-257 > 100 µM | SW-620 > 100 µM | RXF 393 > 100 µM | SK-MEL-28 > 100 µM | COLO 205 > 100 µM | EKVX > 100 µM | HCC 2998 > 100 µM | HOP-62 > 100 µM | UO-31 > 100 µM
